Results reported in US10857089B2, “Cosmetic compositions comprising purple coneflower pressed juice” (Symrise AG, priority 2015, dated 2020).

Columns and labels:
[1] = system: POMC gene expression; assay: Particle induced POMC gene expression, qRT-PCR in keratinocytes; format: cell-based, human; conditions: SRM1650b, control = 1
Protocol: (§1) Gene expression was analyzed via qRT-PCR.
(§2) Ginger root CO2 extract has been dissolved in DMSO and diluted in medium. […] Gene expression was analyzed via qRT-PCR. […] Table 7 compiles the results for ginger root CO2 extract altered POMC and IL-6 gene expression
(§3) Purple coneflower pressed juice has been dissolved directly in medium. […] Gene expression was analyzed via qRT-PCR. […] Table 8 compiles the results for purple coneflower pressed juice altered POMC and IL-6 gene expression
(§4) A mixture of purple coneflower pressed juice and ginger root CO2 extract has been pre-dissolved in DMSO and diluted in medium. […] Gene expression was analyzed via qRT-PCR. […] Table 9 compiles the results for purple coneflower pressed juice altered POMC and IL-6 gene expression

[2] = system: IL-6 gene expression; assay: Particle induced IL-6 gene expression, qRT-PCR in keratinocytes; format: cell-based, human; conditions: SRM1650b, control = 1
Protocol: as §1, §2, §3, §4

[3] = system: CYP1A1 gene expression; assay: CYP1A1 gene expression after induction with outdoor particles, qRT-PCR in keratinocytes; conditions: for CYP1A1 Induction mean ± SE: NHEK adult, 10 μM, untreated = 1
Protocol: Adult human epidermal keratinocytes were cultured in keratinocyte medium without BPE and without EGF for 24 h prior to addition of model particles (see table 1.1). The model particles were suspended in phosphate buffered saline and were sonicated for 1 min and then directly added to the keratinocytes at 1.5 μg/cm^2. E/Z-2-benzylindene-5,6-dimethoxy-3,3-dimethylindan-1-one (BDDI) has been dissolved in DMSO and diluted in medium. Solutions containing the compound with maximal 0.1% DMSO were applied 2 h prior to treatment with the model particles. Gene expression was analyzed via qRT-PCR. For each gene, a specific PCR primer pair was designed as compiled in Table 2:
Adult human epidermal keratinocytes were cultured in keratinocyte medium without BPE and without EGF for 24 h prior to addition of model particles (see table 1.1). The model particles were suspended in phosphate buffered saline and were sonicated for 1 min and then directly added to the keratinocytes at 1.5 μg/cm^2. Sclareolide has been dissolved in DMSO and diluted in medium. Solutions containing the compound with maximal 0.1% DMSO were applied 2 h prior to treatment with the model particles. Gene expression was analyzed via qRT-PCR. For each gene, a specific PCR primer pair was designed (see Table 2).

[4] = system: MMP1 gene expression; assay: Particle induced MMP1 gene expression, qRT-PCR in keratinocytes; format: cell-based, human; conditions: SRM1650b, control = 1
Protocol: as §1

[5] = system: CYP1A1 gene expression; assay: CYP1A1 gene expression after induction with indoor particles, qRT-PCR in keratinocytes; format: cell-based, human; conditions: for Induction mean ± SE (CYP1A1): 10 μM, Huber990 1.5 μg/cm2, untreated = 1
Protocol: as §1

- CYP1A1 Induction mean ± SE ([3]; 6 h, SRM1650 1.5 μg/cm2): 0.02 ± 0.00
- CYP1A1 Induction mean ± SE ([3]; 6 h, SRM2975 1.5 μg/cm2, particle control 1.03): 0.20 ± 0.00
- CYP1A1 Induction mean ± SE ([3]; 24 h, SRM2975 1.5 μg/cm2): 0.01 ± 0.00
- inhibition of particle induced Cyp1A1 gene expression (in words) ([3]; outdoor model particles): capable to inhibit
- Induction mean ± SE (CYP1A1) ([5]; 6 h): 0.05 ± 0.00
- Induction mean ± SE (CYP1A1) ([5]; 24 h): 0.20 ± 0.00
- inhibition of particle induced Cyp1A1 gene expression (in words) ([5]; indoor model particles): capable to inhibit
Substance: E/Z-2-benzylindene-5,6-dimethoxy-3,3-dimethylindan-1-one [BDDI]
- POMC 6 h ([1]; 1 μM): 0.9 ± 0.018
- POMC 6 h ([1]; 2.5 μM): 1.1 ± 0.02
- POMC 6 h ([1]; 10 μM): 0.9 ± 0.001
- IL-6 6 h ([2]; 1 μM): 0.9 ± 0.067
- IL-6 6 h ([2]; 2.5 μM): 0.6 ± 0.006
- IL-6 6 h ([2]; 10 μM): 0.5 ± 0.01
- MMP1 24 h ([4]; 1 μM): 0.7 ± 0.014
- MMP1 24 h ([4]; 2.5 μM): 0.8 ± 0.016
- MMP1 24 h ([4]; 10 μM): 0.5 ± 0.022
